In patent US20250207131A1, “MODIFIED RNA AGENTS WITH REDUCED OFF-TARGET EFFECT” (Alnylam Pharmaceuticals, Inc., priority 2018, published 2025):
pIC50: −log10 of the molar value.

System: luciferase reporter plasmids (psiCHECK2, Renilla luciferase fused to target sequence)
Experiment: Off-target Dual-Glo luciferase reporter assay in COS-7 cells
Assay type: cell-based
Description: Dual-Glo® Luciferase assay: Cos7 cells (ATCC, Manassas, VA) were grown to near confluence at 37° C. in an atmosphere of 5% CO2 in DMEM (ATCC) supplemented with 10% FBS, before being released from the plate by trypsinization. siRNA and psiCHCECK2 plasmid transfection was carried out by adding 5 μL of siRNA duplexes and 5 μL of psiCHECK2 plasmid per well along with 5 μL of Opti-MEM plus 0.1 μL of Lipofectamine 2000 per well (Invitrogen, Carlsbad CA. cat #13778-150) and then incubated at room temperature for 15 minutes. The mixture was then added to the cells which were re-suspended in 35 ul of fresh complete media. The transfected cells were incubated at 37° C. in an atmosphere of 5% CO2.
48 hours after the siRNAs and psiCHECK2 plasmid were transfected; Firefly (transfection control) and Renilla (fused to target sequence) luciferase were measured. First, media was removed from cells. Then Firefly luciferase activity was measured by adding 20 μL of Dual-Glo® Luciferase Reagent equal to the culture medium volume to each well and mix. The mixture was incubated at room temperature for 30 minutes before luminescence (500 nm) was measured on a Spectramax (Molecular Devices) to detect the Firefly luciferase signal. Renilla luciferase activity was measured by adding 20 μL of room temperature of Dual-Glo® Stop & Glo® Reagent was added to each well and the plates were incubated for 10-15 minutes before luminescence was again measured to determine the Renilla luciferase signal. The Dual-Glo® Stop & Glo® Reagent, quenches the firefly luciferase signal and sustained luminescence for the Renilla luciferase reaction. siRNA activity was determined by normalizing the Renilla signal to the Firefly (control) signal within each well. The magnitude of siRNA activity was then assessed relative to cells that were transfected with the same vector but were not treated with siRNA or were treated with a non-targeting siRNA. All transfections were done at n=2 or greater.

[1] = TTR-3, antisense strand modified at position 5, luciferase reporter, COS-7 cells
[2] = TTR-3, antisense strand modified at position 7, luciferase reporter, COS-7 cells
[3] = TTR-4, modification at antisense position 7, luciferase reporter plasmids co-transfected with siRNAs into COS-7 cells

pIC50 [1]	pIC50 [2]	pIC50 [3]	Substance
< 7.30	< 7.30	8.79	2′-(R)-Me-UNA [Mod 7 (R)]
< 7.30	< 7.30	8.87	2′-(S)-Me-UNA [Mod 7 (S)]
< 7.30	< 7.30	8.44	3′-(S)-Me-UNA [Mod 6 (S)]

Continued, substance first:

Substance	pIC50 [1]	pIC50 [2]	pIC50 [3]
3′-(R)-Me-UNA [Mod 6 (R)]	< 7.30	< 7.30	8.54
5′-(R)-Me-UNA [Mod 5 (R)]	< 7.30	< 7.30	8.09
5′-(S)-Me-UNA [Mod 5 (S)]	< 7.30	< 7.30	8.06
